Measurements as given in patent US10570122B2, “Compounds with anti-tumoral activity” (AB Science, priority 2015, dated 2020).

Assays:
H1299 = assay: CellTiter-Blue cell-based survival/proliferation assay, H1299; conditions: Homo sapiens, NCI-H1299; H1299 lung tumor cell line, 48 h
In short: (§1)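 Tenfold compound dilutions (0–10 μM) were added to 1·10^4 cells/well. Plates incubated 48 h at 37 °C. CellTiter-Blue reduction (4 h, 37 °C) was read as fluorescence at 590 nm, background-corrected with a cell-free blank.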

PANC1 = assay: CellTiter-Blue cell-based survival/proliferation assay, PANC1; conditions: Homo sapiens, PANC-1; PANC_1 pancreas tumor cell line, 48 h
In short: as §1

BT20 = assay: CellTiter-Blue cell-based survival/proliferation assay, BT20; conditions: Homo sapiens, BT-20; BT20 breast tumor cell line, 48 h
In short: as §1

DLD1 = assay: CellTiter-Blue cell-based survival/proliferation assay, DLD1; conditions: Homo sapiens, DLD-1; DLD_1 colorectal tumor cell line, 48 h
In short: as §1

ACHN = assay: CellTiter-Blue cell-based survival/proliferation assay, ACHN; conditions: Homo sapiens; ACHN kidney tumor cell line, 48 h
In short: as §1

HEP2 = assay: CellTiter-Blue cell-based survival/proliferation assay, HEP2; conditions: Homo sapiens, HEp-2; HEP2 head & neck tumor cell line, 48 h
In short: as §1

KARPAS299 = assay: CellTiter-Blue cell-based survival/proliferation assay, KARPAS299; conditions: Homo sapiens, KARPAS-299, Lymphoma cell line KARPAS299, 48 h, read-out: Anti-tumoral activity (measured IC50) KARPAS299
In short: as §1

AGS = assay: CellTiter-Blue cell-based survival/proliferation assay, AGS; conditions: Homo sapiens; AGS stomach tumor cell line, 48 h
In short: as §1

PC3 = assay: CellTiter-Blue cell-based survival/proliferation assay, PC3; conditions: Homo sapiens, PC-3; PC3 prostate tumor cell line, 48 h
In short: as §1

A549 = assay: CellTiter-Blue cell-based survival/proliferation assay, A549; conditions: Homo sapiens; A549 lung tumor cell line, 48 h
In short: as §1

CLS354 = assay: CellTiter-Blue cell-based survival/proliferation assay, CLS354; conditions: Homo sapiens, CLS-354; CLS354_4 head & neck tumor cell line, 48 h
In short: as §1

SW579 = assay: CellTiter-Blue cell-based survival/proliferation assay, SW579; conditions: Homo sapiens; SW579 head & neck tumor cell line, 48 h
In short: as §1

OPM2 = assay: CellTiter-Blue cell-based survival/proliferation assay, OPM2; conditions: Homo sapiens, OPM-2, Myeloma cell line OPM2, 48 h, read-out: Anti-tumoral activity (measured IC50) OPM2
In short: as §1

HL60 = assay: CellTiter-Blue cell-based survival/proliferation assay, HL60; conditions: Homo sapiens, HL-60, Leukemia cell line HL60, 48 h, read-out: Anti-tumoral activity (measured IC50) HL60
In short: as §1

REC1 = assay: CellTiter-Blue cell-based survival/proliferation assay, REC1; conditions: Homo sapiens, Lymphoma cell line REC1, 48 h, read-out: Anti-tumoral activity (measured IC50) REC1
In short: as §1

[1] = system: human kinases (456 kinases); assay: KINOMEscan in vitro kinase profiling; assay type: binding
Method: An in vitro kinase profiling was conducted in order to evidence the absence of protein kinase inhibition by the compounds of the invention.
DiscoveRx (Ambit Biosciences) has developed a high-throughput system (KINOMEscan™) for screening of compounds against large numbers of human kinases (456 kinases).
The compounds of the invention were screened at the concentration of 1 μM, and results for primary screen binding interactions were reported as percent control (% Ctrl), where lower numbers indicate stronger hits. DMSO is used as a negative control (100% Ctrl) while a high affinity compound is used as a positive control (0% Ctrl). % Ctrl is calculated as follow:
[formula] Selectivity Score or S-score is a quantitative measure of compound selectivity. It is calculated by dividing the number of kinases that compounds bind to by the total number of distinct kinases tested, excluding mutant variants. S(10)=(number of kinases with % Ctrl<10)/(number of kinases tested), S(1)=(number of kinases with % Ctrl<1)/(number of kinases tested).

DU145 = assay: CellTiter-Blue cell-based survival/proliferation assay, DU145; conditions: Homo sapiens, DU-145; DU145 prostate tumor cell line, 48 h
In short: as §1

HGC27 = assay: CellTiter-Blue cell-based survival/proliferation assay, HGC27; conditions: Homo sapiens, HGC-27; HGC27 stomach tumor cell line, 48 h
In short: as §1

HCT116 = assay: CellTiter-Blue cell-based survival/proliferation assay, HCT116; conditions: Homo sapiens, HCT-116; HCT116 colorectal tumor cell line, 48 h
In short: as §1

[2] = system: panel of about 34 human tumor cell lines; assay: Cell-based proliferation screening on panel of tumor cell lines; conditions: solid tumor cell line, cell line unknown, 48 h, read-out: IC50, solid tumor cell line of column 6 (last section of Table 3)
In short: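 CellTiter-Blue survival assay with 1·10^4 cells/well, each line treated 48 h at 37° C with 1/10 serial dilutions from 0 to 10 μM. Resorufin formed during a 4 h reagent incubation is read by fluorescence at 590 nm. A cell-free blank serves as background.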

BXPC3 = assay: CellTiter-Blue cell-based survival/proliferation assay, BXPC3; conditions: Homo sapiens, BXPC-3; BXPC3 pancreas tumor cell line, 48 h
In short: as §1

HEPG2 = assay: CellTiter-Blue cell-based survival/proliferation assay, HEPG2; conditions: Homo sapiens; HEPG2 liver tumor cell line, 48 h
In short: as §1

MDAMB231 = assay: CellTiter-Blue cell-based survival/proliferation assay, MDAMB231; conditions: Homo sapiens, MDA-MB-231; MDAMB231 breast tumor cell line, 48 h
In short: as §1

CALU6 = assay: CellTiter-Blue cell-based survival/proliferation assay, CALU6; conditions: Homo sapiens, Calu-6; CALU6 lung tumor cell line, 48 h
In short: as §1

PLCPRF5 = assay: CellTiter-Blue cell-based survival/proliferation assay, PLCPRF5; conditions: Homo sapiens, PLC-PRF-5; PLC_PRF5 liver tumor cell line, 48 h
In short: as §1

HUT78 = assay: CellTiter-Blue cell-based survival/proliferation assay, HUT78; conditions: Homo sapiens, Lymphoma cell line HUT78, 48 h, read-out: Anti-tumoral activity (measured IC50) HUT78
In short: as §1

MESSA = assay: CellTiter-Blue cell-based survival/proliferation assay, MESSA; conditions: Homo sapiens, MES-SA; MESSA ovary tumor cell line, 48 h
In short: as §1

TOV112D = assay: CellTiter-Blue cell-based survival/proliferation assay, TOV112D; conditions: Homo sapiens; TOV112D ovary tumor cell line, 48 h
In short: as §1

A498 = assay: CellTiter-Blue cell-based survival/proliferation assay, A498; conditions: Homo sapiens; A498 kidney tumor cell line, 48 h
In short: as §1

Compound	IC50 (H1299) [nM]	IC50 (PANC1) [nM]	IC50 (BT20) [nM]	IC50 (DLD1) [nM]	IC50 (ACHN) [nM]	IC50 (HEP2) [nM]	IC50 (KARPAS299) [nM]	IC50 (AGS) [nM]	IC50 (PC3) [nM]	IC50 (A549) [nM]	IC50 (CLS354) [nM]	IC50 (SW579) [nM]	IC50 (OPM2) [nM]	IC50 (HL60) [nM]	IC50 (REC1) [nM]	IC50 (DU145) [nM]	IC50 (HGC27) [nM]	IC50 (HCT116) [nM]	IC50 [2] [nM]	IC50 (BXPC3) [nM]	also measured
CCOCc1ccc(C)c(Nc2ncc(-c3ccc(-n4cccn4)cc3)o2)c1 [Example 033, (5-Ethoxymethyl-2-methyl-phenyl)-[5-(4-pyrazol-1-yl-phenyl)-oxazol-2-yl]-amine]	> 1000	> 1000	100 to 500	≤ 100	≤ 100	≤ 100	≤ 100	≤ 100	≤ 100	> 1000	≤ 100	> 1000	≤ 100	≤ 100	≤ 100	> 1000	≤ 100	100 to 500	≤ 100	100 to 500	Interaction with the 456 kinases tested ([1]; screened at 1 μM): do not efficiently interact; Number of hits/number of kinases, S1 ([1]; tested at 1 μM, S(1): kinases with % Ctrl<1): 0/456; S-score, S1 ([1]; tested at 1 μM, S(1)=(number of kinases with % Ctrl<1)/(number of kinases tested)): 0.000; Number of hits/number of kinases, S10 ([1]; tested at 1 μM, S(10): kinases with % Ctrl<10): 1/456; S-score, S10 ([1]; tested at 1 μM, S(10)=(number of kinases with % Ctrl<10)/(number of kinases tested)): 0.002; Kinase targets, S10 ([1]; tested at 1 μM, kinases with % Ctrl<10): CDKL3; IC50 (HEPG2): 500 to 1000 nM; IC50 (MDAMB231): > 1000 nM; IC50 (CALU6): ≤ 100 nM; IC50 (PLCPRF5): 500 to 1000 nM; IC50 (HUT78): ≤ 100 nM; IC50 (MESSA): 100 to 500 nM; IC50 (TOV112D): ≤ 100 nM; IC50 (A498): 100 to 500 nM
CCOCc1ccc(C)c(Nc2ncc(-c3ccc(-n4ccccc4=O)cc3)o2)c1 [Example 049, 1-{4-[2-(5-Ethoxymethyl-(2-methyl-phenylamino))-oxazol-5-yl]-phenyl}-1H-pyridin-2-one]	> 1000	> 1000	> 1000	> 1000	> 1000	> 1000	> 1000	> 1000	> 1000	> 1000	> 1000	> 1000	> 1000	> 1000	> 1000	> 1000	> 1000	> 1000	> 1000	> 1000	IC50 (HEPG2): > 1000 nM; IC50 (MDAMB231): > 1000 nM; IC50 (CALU6): > 1000 nM; IC50 (PLCPRF5): > 1000 nM; IC50 (HUT78): > 1000 nM; IC50 (MESSA): > 1000 nM; IC50 (TOV112D): > 1000 nM; IC50 (A498): > 1000 nM
CCOCc1ccc(C)c(Nc2ncc(-c3ccc(-c4ccc[nH]c4=O)cc3)o2)c1 [Example 050, 3-{4-[2-(5-Ethoxymethyl-(2-methyl-phenylamino))-oxazol-5-yl]-phenyl}-1H-pyridin-2-one]	> 1000	> 1000	> 1000	> 1000	> 1000	> 1000	100 to 500	> 1000	> 1000	> 1000	> 1000	> 1000	500 to 1000	500 to 1000	500 to 1000	> 1000	> 1000	> 1000	500 to 1000	> 1000	IC50 (HEPG2): > 1000 nM; IC50 (MDAMB231): > 1000 nM; IC50 (CALU6): > 1000 nM; IC50 (PLCPRF5): > 1000 nM; IC50 (HUT78): > 1000 nM; IC50 (MESSA): > 1000 nM; IC50 (TOV112D): > 1000 nM; IC50 (A498): > 1000 nM
